{"source": "patent US10632101B2", "about": "“Methods and compositions for supporting endogenous systems related to life span” (USANA Health Sciences, Inc., priority 2016, dated 2020)", "key": {"[1]": {"test_system": "C. elegans strain CB5586", "assay": "Phenotypic lifespan screening in C. elegans", "assay_type": "in vivo", "details": "for mean lifespan: DMSO control 13.23; for Statistically Significant Result: 10 mg/ml compared to DMSO control; for effect on chronological lifespan: 0.1 and 10 mg/ml tested", "method": "Dilutions of the test formulations were applied to individual populations of C. elegans and the lifespan of each population was monitored. Any changes in the lifespan of an individual population compared to a control population were recorded and correlated to the respective test formulation (N356 or N357) and the respective dilution (0.1 mg/ml, 1 mg/ml, and 10 mg/ml).\nThe N256 and N357 formulations were each prepared as individual 100 mg/ml stock solutions in dimethyl sulfoxide (DMSO). Serial dilutions of each stock solution were then prepared at 0.1 mg/ml, 1 mg/ml, and 10 mg/ml in DMSO. Control solutions of DMSO only were also prepared. Synchronous aged adult populations of C. elegans strain CB5586 worms were prepared. The CB5586 strain comprises a pharyngeal GFP (green fluorescent protein) tag and a mutation in the bus-5 gene. The pharyngeal GFP tag allows for fluorescent images of the worm populations to be taken. The mutation in the bus-5 gene causes the loss of normal cuticle antigens that permits the cuticle of the worms to become permeable to the test formulations and allow direct uptake of the test formulations to avoid interaction of the test formulations with protective mechanisms of the gut channel. Each serial dilution of each test formulation was added to a separate population of the prepared worms. The control solutions were also added to separate populations of the prepared worms. The populations of the prepared worms were then maintained on standard nematode growth media (NGM) agar plates at 20° C. with sufficient food (Escherichia coli strain OP-50).\nEach worm population was then monitored by fluorescent imaging to determine the number of living and dead worms as a function of time. The fluorescent imaging was analyzed by software that recognized and counted worms based on their fluorescent intensity compared to background fluorescence. […] The ability to distinguish between living and dead worms allowed the number of living worms and a cumulative number of dead worms to be monitored against time. Worm populations from a selection of fluorescent images were manually checked to verify that the software had accurately counted the number of living and dead worms.\nThe counts of the living and dead worms as a function of time were then analyzed for each of the worm populations and used to prepare Kaplan-Meier survival curves and associated statistics for each of the worm populations. […] The median lifespan is shown as the length of time after the last mitotic division that 50% of the test population remains viable when compared to the control population. The maximum lifespan extension is shown as the length of time after the last mitotic division that 5% of the test population remains viable when compared to the control population.\nThe counts of the living and dead worms as a function of time and the Kaplan-Meier survival curves and the associated statistics were then analyzed for each of the worm populations. The analysis included determining mean and median lifespan. The analysis included a non-parametric test, the Log-Rank test, which compares two survival functions for the overall lifespan assay and provides a reliable p-value summarizing the whole experiment. The analysis also included Fisher's Exact Test that calculated the significance of survival function comparisons at multiple specific time points throughout the experiment, rather than for the overall lifespan. The results of the analysis are shown below in Tables 10-17.\nPhenotypic screening was carried out as described in EXAMPLE 2 for various individual compounds of the N357 formulation. […] Alpha lipoic acid was sourced from PureBulk™ USA as a racemic mix of R and S stereoisomers and was assigned a sample number of N198. Hesperidin was sourced from Sigma Aldrich at ≥80% purity and was assigned a sample number of N347. […]"}, "[2]": {"test_system": "human NF-κB", "assay": "NF-κB reporter cell assay, antagonist mode", "assay_type": "cell-based"}, "[3]": {"molecular_target": "T1, mTOR (Homo sapiens, UniProt P42345)", "T1 construct": "host or cells: isolated cells in culture (not specified)", "details": "cited from earlier work"}}, "data": [{"smiles": "COc1ccc([C@@H]2CC(=O)c3c(O)cc(O[C@@H]4O[C@H](CO[C@@H]5O[C@@H](C)[C@H](O)[C@@H](O)[C@H]5O)[C@@H](O)[C@H](O)[C@H]4O)cc3O2)cc1O", "note": "[N347, Hesperidin]", "values": [{"measurement": "extension of lifespan (Kaplan-Meier figure)", "setting": "[1]; 0.1 mg/ml", "value": "about 10%"}, {"measurement": "% Change in Mean Lifespan", "setting": "[1]; 0.1 mg/ml compared to DMSO control", "value": "+10%"}, {"measurement": "mean lifespan", "setting": "[1]; 0.1 mg/ml", "value": 14.55, "unit": "days"}, {"measurement": "Statistically Significant Result", "setting": "[1]", "value": "No statistical difference"}, {"measurement": "mean lifespan", "setting": "[1]; 10 mg/ml", "value": 14.19, "unit": "days"}, {"measurement": "effect on chronological lifespan", "setting": "[1]", "value": "significant positive and dose-dependent increase of chronological lifespan"}]}, {"smiles": "O=c1c(O)c(-c2ccc(O)c(O)c2)oc2cc(O)cc(O)c12", "note": "[Quercetin, 2-(3,4-dihydroxyphenyl)-3,5,7-trihydroxy-4H-chromen-4-one]", "values": [{"measurement": "NF-κB % Inhibition", "setting": "[2]; 0.84 μg/ml", "value": "−6", "unit": "%"}, {"measurement": "Statistically Significant Result", "setting": "[1]", "value": "No statistical difference"}, {"measurement": "effect on chronological lifespan", "setting": "[1]", "value": "significant negative effect on chronological lifespan"}]}, {"smiles": "C[C@@H]1O[C@@H](OC[C@H]2O[C@@H](Oc3c(-c4ccc(O)c(O)c4)oc4cc(O)cc(O)c4c3=O)[C@H](O)[C@@H](O)[C@@H]2O)[C@H](O)[C@H](O)[C@H]1O", "note": "[Rutin, 2-(3,4-dihydroxyphenyl)-5,7-dihydroxy-3-[α-L-rhamnopyranosyl-(1→6)-β-D-glucopyranosyloxy]-4H-chromen-4-one]", "values": [{"measurement": "NF-κB % Inhibition", "setting": "[2]; 1.11 μg/ml", "value": 10, "unit": "%"}]}, {"smiles": "Cn1c(=O)c2c(ncn2C)n(C)c1=O", "note": "[caffeine]", "values": [{"measurement": "mTOR inhibition", "setting": "[3]; applied to isolated cells in culture", "value": "inhibit mTOR"}, {"measurement": "mTOR inhibition, mitophagy and mitochondrial turnover", "setting": "[3]", "value": "inhibit mTOR, up-regulate mitophagy, and increase the rate of mitochondrial turnover"}]}]}
